One sequence from PMC7498065, “Isolation of antigen-specific, disulphide-rich knob domain peptides from bovine antibodies” (PLoS Biology, 2020) can be followed below.

Entries after “also recorded” stand apart in the source; their conditions may differ. Where no end group is shown, it is not given here.

This assay has as its target Complement component C5 (Homo sapiens, UniProt P01031). The assay is described as follows: Biacore SPR single-cycle kinetics of isolated knob domain peptides binding to C5. As to the method:
For knob domain peptides, flow cells were activated using a standard immobilisation protocol: EDC/NHS was mixed at 1:1 ratio (flow rate, 10 μL/min; contact time, 30 s). C5, at 1 μg/mL in pH 4.5 sodium-acetate buffer, was immobilized on flow cell 2 only (flow rate, 10 μL/min; contact time, 420 s). Finally, ethanolamine was applied to both flow cells (flow rate, 10 μL/min; contact time, 420 s). A final immobilization level of approximately 1,500–2,000 response units was obtained for peptide samples. For the PGT121-K149 fusion protein and K149 knob domain, the same immobilisation protocols were used but with a 750 ng/mL solution of C5, instead of 1 μg/mL.
One-micromolar stock solutions of the analytes (PGT121 knob domain fusion proteins and free knob domain peptides) were prepared in HBS-EP buffer. A series of six 3-fold dilutions of each stock solution was prepared in the same buffer. The result was 7 solutions for each analyte, at concentrations ranging from 1 μM down to 1.37 nM. A high flow rate of 40 μL/min was used, with a contact time of 230 s and a dissociation time of 1,800 s for knob domain peptides and 10,000 s for PGT121 knob domain fusion proteins. For the PGT121-K149 fusion protein and K149 knob domain, the flow rate was further increased to 100 μL/min. Binding to the reference surface was subtracted, and the data were fitted to a single-site binding model using Biacore evaluation software. Data were inspected for evidence of mass transport limitation using the flow-rate–independent component of the mass transfer constant (tc).
On the technique in general: In SPR one partner is held on a chip, and binding of the other changes the refractive index at the surface.

Chain of Complement component C5 (P01031 19-673 limits assumed): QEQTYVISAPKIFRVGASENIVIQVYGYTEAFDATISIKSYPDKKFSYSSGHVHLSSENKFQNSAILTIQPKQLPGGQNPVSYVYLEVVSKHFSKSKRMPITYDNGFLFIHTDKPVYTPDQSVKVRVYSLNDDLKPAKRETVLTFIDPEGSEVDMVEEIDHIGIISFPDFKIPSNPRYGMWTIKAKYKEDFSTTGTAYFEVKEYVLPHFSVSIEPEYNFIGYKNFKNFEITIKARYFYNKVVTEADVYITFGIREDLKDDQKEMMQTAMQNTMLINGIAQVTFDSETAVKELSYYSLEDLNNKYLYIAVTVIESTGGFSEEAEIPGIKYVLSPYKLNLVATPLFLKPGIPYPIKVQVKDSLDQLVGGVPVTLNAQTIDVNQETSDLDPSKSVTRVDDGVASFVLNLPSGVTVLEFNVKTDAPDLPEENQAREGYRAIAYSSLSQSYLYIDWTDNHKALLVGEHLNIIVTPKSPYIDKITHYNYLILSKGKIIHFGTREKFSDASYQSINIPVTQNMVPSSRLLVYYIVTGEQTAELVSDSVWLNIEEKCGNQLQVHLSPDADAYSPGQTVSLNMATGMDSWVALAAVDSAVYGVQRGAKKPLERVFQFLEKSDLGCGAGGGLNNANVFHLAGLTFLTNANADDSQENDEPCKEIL
Chain of Complement component C5 (P01031 678-1676 limits assumed): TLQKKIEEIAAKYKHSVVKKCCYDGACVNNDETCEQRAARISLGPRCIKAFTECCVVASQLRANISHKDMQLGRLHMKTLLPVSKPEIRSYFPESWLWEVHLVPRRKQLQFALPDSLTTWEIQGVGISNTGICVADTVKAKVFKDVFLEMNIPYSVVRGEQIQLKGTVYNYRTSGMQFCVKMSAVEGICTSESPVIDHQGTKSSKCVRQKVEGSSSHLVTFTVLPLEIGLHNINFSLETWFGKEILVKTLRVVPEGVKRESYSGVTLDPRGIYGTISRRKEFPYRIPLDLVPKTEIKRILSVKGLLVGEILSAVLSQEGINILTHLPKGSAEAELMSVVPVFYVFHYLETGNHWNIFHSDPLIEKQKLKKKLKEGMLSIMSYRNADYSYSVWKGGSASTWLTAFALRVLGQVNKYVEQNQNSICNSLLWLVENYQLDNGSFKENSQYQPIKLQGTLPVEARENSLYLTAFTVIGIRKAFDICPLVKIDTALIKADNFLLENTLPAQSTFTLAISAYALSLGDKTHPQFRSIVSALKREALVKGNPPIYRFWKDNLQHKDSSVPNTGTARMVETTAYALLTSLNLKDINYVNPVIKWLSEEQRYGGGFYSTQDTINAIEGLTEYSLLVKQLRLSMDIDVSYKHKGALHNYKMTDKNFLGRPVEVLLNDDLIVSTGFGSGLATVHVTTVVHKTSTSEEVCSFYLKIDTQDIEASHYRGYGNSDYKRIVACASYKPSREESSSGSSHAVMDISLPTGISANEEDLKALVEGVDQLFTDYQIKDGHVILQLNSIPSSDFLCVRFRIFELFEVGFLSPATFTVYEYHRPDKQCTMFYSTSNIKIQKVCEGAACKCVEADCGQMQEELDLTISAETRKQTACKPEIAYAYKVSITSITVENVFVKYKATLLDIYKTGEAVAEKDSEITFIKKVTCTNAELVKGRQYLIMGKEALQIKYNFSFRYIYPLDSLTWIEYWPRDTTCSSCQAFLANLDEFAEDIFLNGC

As to “GKSCREGYIDGGGCCLPGSCRGCACSYYDWLKCPRDCRGTSEEENLYFQ (also: bicyclic or more (positions not given here)) [K60, isolated bovine knob domain peptide, TEV-excised from PGT121 Fab]”, under “SPR single-cycle kinetics, 1:1 model, mean of 3 experiments (Fig 6)”, the “mean KD” value is recorded as “not to bind; also recorded: Non-binding”. In addition, the “Mean Stoichiometric ratio at 1 µM” value (SPR, analyte 1 µM, mean of n=3 occasions) is below 0.1. The “Stoichiometric ratio at 1 µM” value is, setting by setting: (occasion n=1) below 0.1; (occasion n=2) below 0.1; (occasion n=3) below 0.1.
